Target: T1, HPK1 kinase (aa1-346, Life Technologies) (Homo sapiens, UniProt Q92918)
T1 construct: HPK1 kinase (aa1-346, Life Technologies); purchased Life Technologies
T1 sequence (Q92918 1-346): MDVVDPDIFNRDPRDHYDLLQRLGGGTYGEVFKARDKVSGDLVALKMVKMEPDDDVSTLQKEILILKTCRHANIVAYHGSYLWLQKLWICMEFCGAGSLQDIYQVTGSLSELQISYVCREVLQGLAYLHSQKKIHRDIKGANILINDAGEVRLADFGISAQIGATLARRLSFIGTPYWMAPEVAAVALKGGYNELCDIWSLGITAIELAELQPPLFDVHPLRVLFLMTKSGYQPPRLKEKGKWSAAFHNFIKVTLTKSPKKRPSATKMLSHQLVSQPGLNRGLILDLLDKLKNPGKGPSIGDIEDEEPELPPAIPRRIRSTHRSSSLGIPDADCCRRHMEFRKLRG
Assay: HPK1 Kinase Activity Assay at 1 mM ATP (TR-FRET)
Assay type: biochemical
Settings: HPK1 40 nM, read-out: Enzymatic activity IC50
Experimental: HPK1 Kinase Activity Assay at 1 mM ATP
Compounds disclosed herein were tested for inhibition of HPK1 kinase (aa1-346, Life Technologies) activity in assays based on the time-resolved fluorescence-resonance energy transfer (TR-FRET) methodology. The assays were carried out in 384-well low volume black plates in a reaction mixture containing HPK1 kinase (40 nM), 1 mM ATP, 0.5 μM STK1 substrate and 0-10 μM compound in buffer containing 50 mM HEPES, 0.01% BSA, 0.1 mM Orthovanadate, 10 mM MgCl2, 1 mM DTT, pH=7.0, 0.005% Tween-20. The kinase was incubated with the compounds disclosed herein or DMSO for 60 minutes at room temperature and the reaction was initiated by the addition of ATP and STK1 substrate. After reaction at room temperature for 120 minutes, an equal volume of stop/detection solution was added according to the manufacturer's instruction (CisBio). The stop/detection solution contained STK Antibody-Cryptate and XL665-conjugated streptavidin in Detection Buffer. The TR-FRET signals (ratio of fluorescence emission at 665 nm over emission at 620 nm with excitation at 337 nm wavelength) were recorded on a PHERAstar FS plate reader (BMG Labtech). Phosphorylation of STK1 substrate led to the binding of STK Antibody-Cryptate to the biotinylated STK1 substrate, which places fluorescent donor (Eu^3+ cryptate) in close proximity to the accepter (Streptavidin-XL665), thus resulting in a high degree of fluorescence resonance energy transfer. The inhibition of HPK1 in presence of increasing concentrations of compounds was calculated based on the ratio of fluorescence at 665 nm to that at 620 nm. The IC50 for each compound was derived from fitting the data to the four-parameter logistic equation by Graphpad Prism software.

An IC50 of 0.068 µM was found for Cc1cc(-c2c[nH]c3ncc(-c4cc(C)c5c(c4)CN(CCC(=O)N[C@H]4CCC[C@H]4O)CC5)nc23)ccc1C(=O)N(C)C [Example 54, 4-(2-(2-(3-(((1S, 2R)-2-hydroxycyclopentyl)amino)-3-oxopropyl)-5-methyl-1,2,3,4-tetrahydroisoquinolin-7-yl)-5H-pyrrolo[2,3-b]pyrazin-7-yl)-N, N, 2-trimethylbenzamide] in this work.
An IC50 of 0.013 µM was found for Cc1cc(-c2cnc3[nH]cc(-c4ccc(C(=O)N5CC6(COC6)C5)cc4)c3n2)cc2c1CCN(C)C2 [Example 19, (4-(2-(2,5-dimethyl-1,2,3,4-tetrahydroisoquinolin-7-yl)-5H-pyrrolo[2,3-b]pyrazin-7-yl)phenyl) (2-oxa-6-azaspiro[3.3]heptan-6-yl)methanone] in this work.
An IC50 of 0.052 µM was found for COc1cc(-c2cnc3[nH]cc(-c4ccc(C(=O)N(C)C[C@H](C)O)c(C)c4)c3n2)cc2c1CCN(C)C2 [Example 12, (S)—N-(2-hydroxypropyl)-4-(2-(5-methoxy-2-methyl-1,2,3,4-tetrahydroisoquinolin-7-yl)-5H-pyrrolo[2,3-b]pyrazin-7-yl)-N, 2-dimethylbenzamide] in this work.
An IC50 of 0.082 µM was found for COCCCNC(=O)CCN1CCc2c(C)cc(-c3cnc4[nH]cc(-c5ccc(C(=O)N(C)C)c(C)c5)c4n3)cc2C1 [Example 44, 4-(2-(2-(3-((3-methoxypropyl)amino)-3-oxopropyl)-5-methyl-1,2,3,4-tetrahydroisoquinolin-7-yl)-5H-pyrrolo[2,3-b]pyrazin-7-yl)-N, N, 2-trimethylbenzamide] in this work.
An IC50 of 0.053 µM was found for Cc1cc(-c2c[nH]c3ncc(-c4cc(C)c5c(c4)CN(CCC(=O)NC4(CO)CC4)CC5)nc23)ccc1C(=O)N(C)C [Example 31, 4-(2-(2-(3-(1-(hydroxymethyl)cyclopropylamino)-3-oxopropyl)-5-methyl-1,2,3,4-tetrahydroisoquinolin-7-yl)-5H-pyrrolo[2,3-b]pyrazin-7-yl)-N, N, 2-trimethylbenzamide] in this work.
An IC50 of 0.021 µM was found for Cc1cc(-c2cnc3[nH]cc(-c4ccc(C(=O)N(C)C[C@H](C)O)cc4)c3n2)cc2c1CCN(C)C2 [Example 5, (S)-4-(2-(2,5-dimethyl-1,2,3,4-tetrahydroisoquinolin-7-yl)-5H-pyrrolo[2,3-b]pyrazin-7-yl)-N-(2-hydroxypropyl)-N-methylbenzamide] in this work.
An IC50 of 0.034 µM was found for COc1cc(-c2cnc3[nH]cc(-c4cc(F)c(C(=O)N(C)C[C@@H]5CCOC5)c(F)c4)c3n2)cc2c1CN(C)CC2 [Example 7A, (S)-2,6-difluoro-4-(2-(8-methoxy-2-methyl-1,2,3,4-tetrahydroisoquinolin-6-yl)-5H-pyrrolo[2,3-b]pyrazin-7-yl)-N-methyl-N-((tetrahydrofuran-3-yl)methyl)benzamide] in this work.
An IC50 of 0.137 µM was found for Cc1cc(-c2c[nH]c3ncc(-c4cc(C)c5c(c4)CN(CCN4CCOCC4)CC5)nc23)ccc1C(=O)N(C)C[C@@H]1CCOC1 [Example 50, (S)—N, 2-dimethyl-4-(2-(5-methyl-2-(2-morpholinoethyl)-1,2,3,4-tetrahydroisoquinolin-7-yl)-5H-pyrrolo[2,3-b]pyrazin-7-yl)-N-((tetrahydrofuran-3-yl)methyl)benzamide] in this work.
An IC50 of 0.007 µM was found for CN[C@H]1CCN(C(=O)c2ccc(-c3c[nH]c4ncc(-c5cc6c(c(OC)c5)CCN(C)C6)nc34)cc2)C1 [Example 18, (S)-(4-(2-(5-methoxy-2-methyl-1,2,3,4-tetrahydroisoquinolin-7-yl)-5H-pyrrolo[2,3-b]pyrazin-7-yl)phenyl) (3-(methylamino)pyrrolidin-1-yl)methanone] in this work.
An IC50 of 0.092 µM was found for Cc1cc(-c2c[nH]c3ncc(-c4cc(C)c5c(c4)CN(C)CC5)nc23)ccc1C(=O)N(C)C[C@@H](C)O [Example 4, (R)-4-(2-(2,5-dimethyl-1,2,3,4-tetrahydroisoquinolin-7-yl)-5H-pyrrolo[2,3-b]pyrazin-7-yl)-N-(2-hydroxypropyl)-N, 2-dimethylbenzamide] in this work.
An IC50 of 0.045 µM was found for Cc1cc(-c2cnc3[nH]cc(-c4ccc(C(=O)N(C)C[C@H](C)O)cc4)c3n2)cc2c1CCN(CCN1CCOCC1)C2 [Example 13, (S)—N-(2-hydroxypropyl)-N-methyl-4-(2-(5-methyl-2-(2-morpholinoethyl)-1,2,3,4-tetrahydroisoquinolin-7-yl)-5H-pyrrolo[2,3-b]pyrazin-7-yl)benzamide] in this work.
An IC50 of 0.078 µM was found for Cc1cc(-c2c[nH]c3ncc(-c4cc(C)c5c(c4)CN(CCC(=O)N[C@@H]4CCCOC4)CC5)nc23)ccc1C(=O)N(C)C [Example 53, (R)—N, N, 2-trimethyl-4-(2-(5-methyl-2-(3-oxo-3-((tetrahydro-2H-pyran-3-yl)amino)propyl)-1,2,3,4-tetrahydroisoquinolin-7-yl)-5H-pyrrolo[2,3-b]pyrazin-7-yl)benzamide] in this work.
An IC50 of 0.054 µM was found for Cc1cc(-c2c[nH]c3ncc(-c4cc(C)c5c(c4)CN(CCC(=O)N[C@H]4CC[C@@H](O)CC4)CC5)nc23)ccc1C(=O)N(C)C [Example 41, 4-(2-(2-(3-((cis-4-hydroxycyclohexyl)amino)-3-oxopropyl)-5-methyl-1,2,3,4-tetrahydroisoquinolin-7-yl)-5H-pyrrolo[2,3-b]pyrazin-7-yl)-N, N, 2-trimethylbenzamide] in this work.
An IC50 of 0.049 µM was found for CNC(=O)CCN1CCc2c(C)cc(-c3cnc4[nH]cc(-c5ccc(C(=O)N(C)C)c(C)c5)c4n3)cc2C1 [Example 25, N, N, 2-trimethyl-4-(2-(5-methyl-2-(3-(methylamino)-3-oxopropyl)-1,2,3,4-tetrahydroisoquinolin-7-yl)-5H-pyrrolo[2,3-b]pyrazin-7-yl)benzamide] in this work.
An IC50 of 0.014 µM was found for COc1cc(-c2cnc3[nH]cc(-c4ccc(C(=O)N(C)C[C@@H]5CCOC5)cc4)c3n2)cc2c1CN(C)CC2 [Example 57, (S)-4-(2-(8-methoxy-2-methyl-1,2,3,4-tetrahydroisoquinolin-6-yl)-5H-pyrrolo[2,3-b]pyrazin-7-yl)-N-methyl-N-((tetrahydrofuran-3-yl)methyl)benzamide] in this work.
An IC50 of 0.089 µM was found for Cc1cc(-c2c[nH]c3ncc(-c4cc(C)c5c(c4)CN(CCC(=O)NCC4CC4)CC5)nc23)ccc1C(=O)N(C)C [Example 55, 4-(2-(2-(3-((cyclopropylmethyl)amino)-3-oxopropyl)-5-methyl-1,2,3,4-tetrahydroisoquinolin-7-yl)-5H-pyrrolo[2,3-b]pyrazin-7-yl)-N, N, 2-trimethylbenzamide] in this work.
An IC50 of 0.075 µM was found for CC(=O)Nc1cc(-c2c[nH]c3ncc(-c4cc(C)c5c(c4)CN(C)CC5)nc23)ccc1C(=O)N(C)C [Example 21, 2-acetamido-4-(2-(2,5-dimethyl-1,2,3,4-tetrahydroisoquinolin-7-yl)-5H-pyrrolo[2,3-b]pyrazin-7-yl)-N, N-dimethylbenzamide] in this work.
An IC50 of 0.067 µM was found for Cc1cc(-c2c[nH]c3ncc(-c4cc(C)c5c(c4)CN(CCC(=O)NC4CCOCC4)CC5)nc23)ccc1C(=O)N(C)C [Example 28, N, N, 2-trimethyl-4-(2-(5-methyl-2-(3-oxo-3-(tetrahydro-2H-pyran-4-ylamino)propyl)-1,2,3,4-tetrahydroisoquinolin-7-yl)-5H-pyrrolo[2,3-b]pyrazin-7-yl)benzamide] in this work.
An IC50 of 0.052 µM was found for Cc1cc(-c2c[nH]c3ncc(-c4cc(C)c5c(c4)CN(CCC(=O)NCCO)CC5)nc23)ccc1C(=O)N(C)C [Example 45, 4-(2-(2-(3-((2-hydroxyethyl)amino)-3-oxopropyl)-5-methyl-1,2,3,4-tetrahydroisoquinolin-7-yl)-5H-pyrrolo[2,3-b]pyrazin-7-yl)-N, N, 2-trimethylbenzamide] in this work.

From patent US12454534B2, “Pyrrolo[2,3-b]pyrazines as HPK1 inhibitor and the use thereof” (BEIGENE, LTD., priority 2019, dated 2025)
